Work on CC(=O)Cc1ccc(NC(=O)/C=C/c2cnn(C)c2-c2ccc(F)cc2)cc1 yielded a melting point of 186 to 187 °C. For CCS(=O)(=O)CCC(=O)NNC(=O)N1Cc2ccccc2Oc2ccc(Cl)cc21, the melting point was 181 to 184 °C. For Nc1ccc2c3c1c(=O)c(C(=O)O)cn3CCC2, the melting point was over 300 °C. Molecule CCCCCC/C(=C\c1ccccc1)C1O[C@@H](C(=O)OC)[C@H](C(=O)OC)O1 has a melting point of 49 to 50 °C. Work on Nc1ccc(-c2nc3cc(OCc4ccccc4)ccc3s2)c(Cl)c1 yielded a melting point of 119 to 121 °C. For Cc1nnc(CNC(=O)CN(C)C)n1-c1ccc(Cl)cc1C(=O)c1ccccc1, the melting point was 176 to 178 °C. Work on COC(=O)c1cc(COC(C)=O)cc(-n2cccc2C#N)c1 yielded a melting point of 85 to 86 °C. With O=C(O)c1cc(O)c2c(c1)C(=O)c1ccc(F)c(O)c1C2=O the melting point was over 275 °C. COc1ccc(CCCO)cc1OCc1coc(/C=C/c2ccccc2)n1 showed a melting point of 126 to 128 °C. Work on O=C(CBr)c1cccc2nnsc12 yielded a melting point of 155 to 157 °C. Molecule CC(C)(O)c1cnn2c(-c3ccc(F)c(-c4cccnc4)c3)cnc2n1 has a melting point of 199 to 200 °C. COc1ccc(Cn2c(C)c(Br)c3cnnc(OCc4ccccc4)c32)cc1 showed a melting point of 149 to 152 °C. In the case of Fc1cc2cc[nH]c2cc1Cl, the melting point is reported as 105 to 107 °C. For CN(C)CCNC1=CC(=O)c2nc(-c3ccc(F)cc3)sc2C1=O, the melting point was 246 to 247 °C. c1cc(CC[C@H]2CNCCN2)co1 gave a melting point of 112 to 114 °C. CC(C)c1nc(CC#N)n(C)c1Sc1cc(Cl)cc(Cl)c1 gave a melting point of 103 to 105 °C. Work on O=C(Nc1ccc(C(=O)N2Cc3ccccc3Cc3ccccc32)cc1)c1ccccc1 yielded a melting point of 219 to 221 °C. O=C(NCCc1c[nH]c2ccc(C(=O)O)cc12)OCc1ccccc1 showed a melting point of 186 to 188 °C. With CCCCCCCNC(=O)Nc1ccccc1C(=O)NC1CCN(Cc2ccccc2)CC1 the melting point was 134 °C. O=C(Nc1ccc(-n2nc(C(F)(F)F)cc2C(F)(F)F)cc1)c1ccccc1C(=O)c1ccccc1 showed a melting point of 204 to 205 °C. In the case of O=C(O)c1cc([N+](=O)[O-])c(F)c(F)c1F, the melting point is reported as 128 to 129 °C. In the case of Nc1nc2c(ncn2COCCCP(=O)(O)O)c(=O)[nH]1, the melting point is reported as 202 °C. CC(C)Sc1sc(C(=O)N2CCCC2)c2c1-c1oncc1C(C)(C)C2 showed a melting point of 88 to 91 °C. With CC(=O)c1ccc(CCCCCCOc2ccc(C(=O)c3cccc(C(=O)O)c3)cc2CCC(=O)O)cc1 the melting point was 139 to 141 °C. Work on Brc1ccc2c(C3CCNCC3)n[nH]c2c1 yielded a melting point of 163 to 165 °C. Molecule O=C(Cc1ccc(Cl)cc1)c1ccc(OC(F)F)cc1 has a melting point of 74 to 76 °C. With O=C(NC1CCN(CCOC(=O)c2ccccc2)CC1)c1ccccc1 the melting point was 139 to 140 °C. Molecule CCOC(=O)C(COC(=O)COc1ccc(NC(=O)c2ccccc2-c2ccc(C(F)(F)F)cc2)c(C(=O)N(C)C)c1)(C(=O)OCC)c1ccccc1 has a melting point of 132 to 138 °C. CCN(CC)CCC1CCCCN1C(=O)N1c2ccccc2C(=O)Nc2cccnc21 (stereo unspecified) showed a melting point of 100 °C. Work on Cc1noc(NS(=O)(=O)c2ccccc2-c2ncccn2)c1C yielded a melting point of 160 to 162 °C. CC(C)(C)C(NC(=O)c1ccc(Cl)cc1)Nc1c(Nc2cccc(F)c2)c(=O)c1=O (stereo unspecified) showed a melting point of 271 to 272 °C. For O=C(Nc1cccc(Cl)c1C(=O)O)c1ccccc1, the melting point was 208 to 210 °C. For COc1cc(Nc2c(-c3ccc(S(C)(=O)=O)cc3)cnn(CC(F)(F)F)c2=O)cc(C(F)(F)F)c1, the melting point was 206 to 208 °C. Molecule Cc1ccc(-c2ccc(C(=O)Nc3ccc4cc(CN5CCCC5)cnc4c3F)c(F)c2)cc1 has a melting point of 173 °C. For CCOC(=O)c1ccc(C(=O)C2=NS(=O)(=O)c3ccccc3C2=O)cc1, the melting point was 161 °C. With Cc1nn(-c2ccccn2)c2ncc(C(=O)c3ccccc3)c(Cl)c12 the melting point was 177 to 178 °C. In the case of COc1cccc(-c2nn(Cc3ccccc3)c3ncnc(O)c23)c1, the melting point is reported as 183 to 185 °C. In the case of CCCCc1nc2c(N)nc3cc(-c4cccnc4)ccc3c2n1CCNC(=O)C(C)C, the melting point is reported as 228 to 230 °C. With CC1(c2ccc(C(O)C(C)(C)C)cc2)OCCO1 (stereo unspecified) the melting point was 75 to 80 °C. Cc1ccc(C2=C(c3ccc(C)cc3)C(c3ccc(C)cc3)=C(c3ccc(C)cc3)C2=O)cc1 showed a melting point of 244 to 245 °C. CC1(C)C=C(C(=NC2CC2)NC#N)c2cc([N+](=O)[O-])ccc2O1 gave a melting point of 206 to 207 °C. Work on CCOC(=O)c1cc(C(=O)OCC)c(=O)[nH]c1C yielded a melting point of 195 to 197 °C. Work on COc1ccc(CC(CSC(C)=O)C(=O)Nc2cccc(C(=O)O)c2)cc1 (stereo unspecified) yielded a melting point of 124 to 126 °C. CCOC(=O)C1COc2cc(C)c(C)cc2O1 (stereo unspecified) showed a melting point of 70 to 71 °C. Work on CC(=O)NCC(=O)N1CC1C#N (stereo unspecified) yielded a melting point of 102 to 104 °C. CCCc1ccnc(C(N)=O)c1C(N)=O gave a melting point of 178 to 179 °C. With Fc1ccc(-c2n[nH]cc2-c2ccnc(Cl)n2)cc1 the melting point was 204 to 205 °C. For COc1cc2c(c(-c3cc(F)ccc3F)c1)OC(CN)C2 (stereo unspecified), the melting point was 118 to 120 °C. Nc1ccccc1NC(=O)/C=C/c1ccccc1I gave a melting point of 194 to 196 °C. For COc1cc2ccc(CO)c(-c3ccnc(Br)c3)c2cc1OC, the melting point was 150 to 153 °C. Molecule C#Cc1cc(Nc2ncnc3cnc(C)cc23)ccc1F has a melting point of 225 °C. With CCCNC(=O)c1cncs1 the melting point was 86 °C. Work on CC(C)n1nc(-c2nc(-c3ccccc3)c(N)nc2-c2ccccc2)ccc1=O yielded a melting point of 225 to 226 °C. With O=C1C(Cl)=C(c2ccccc2)C(=O)N1c1ccc(Cl)cc1 the melting point was 116 to 117 °C. COc1cc(C(=O)NC2CCN(C)CC2)ccc1Nc1ncc2c(n1)N(C1CCCC1)CC(F)(F)C(=O)N2C gave a melting point of 241 to 243 °C. Molecule CCOC(=O)C(Cl)N=Nc1ccccc1C(=O)c1ccccn1 (stereo unspecified) has a melting point of 123 to 125 °C. Nc1nccc(C=Cc2ccccn2)c1[N+](=O)[O-] showed a melting point of 161 to 163 °C. CCOC(=O)c1ccc2[nH]c([Si](C)(C)C)c(CCCO[Si](C)(C)C(C)(C)C)c2c1 showed a melting point of 115 to 116 °C. For O=C1NC(=O)C2(c3ccccc3)CC1C2, the melting point was 217 to 218 °C. With CCOC(=O)c1cn(-c2ccc(F)cc2)c2cc(-c3ccncc3)ccc2c1=O the melting point was 252 to 253 °C. Work on CNC(=O)NCCSCc1ccccn1 yielded a melting point of 63 to 66 °C. For CCCc1ccc2oc(C(=O)c3ccncc3)c(C)c2c1O, the melting point was 203 to 205 °C. With COC[C@H]1CCCN1C(=O)c1cc(-c2ccccc2)c(=O)n2ccc3ccc(Cl)cc3c12 the melting point was 137 to 140 °C. COCCOc1ccc(/C=C/C(=O)O)c(Oc2ncc(NC(=O)OC(C)(C)C)cc2C)c1 gave a melting point of 159 to 160 °C. In the case of Cc1ccc2c(c1)[nH]c(=O)n2CCCO, the melting point is reported as 114 °C. Cc1nnc2n1-c1sc(CCc3ccccc3)cc1C(c1ccccc1Cl)=NC2 showed a melting point of 106 to 108 °C. CCCCCCCCCCC1C(=O)NC(=O)NC1=O gave a melting point of 190 °C. With COc1ccc(CCNC(=S)Nc2nc3ccccc3[nH]2)cc1 the melting point was 166 to 172 °C. CCCc1nc2c(N)nc3ccc(-c4ccc(F)cc4CN)cc3c2s1 gave a melting point of 198 to 201 °C. Molecule O=CNc1cccc2c1C(=O)c1c-2n[nH]c1-c1ccncc1 has a melting point of over 300 °C. With O=C(C(=O)N1CCC(c2nnnn2-c2ccccc2)CC1)c1c[nH]c2c(-n3ccnn3)ncc(F)c12 the melting point was 257 to 258 °C. Molecule CCCCCCS(=O)(=O)Oc1c(I)cc(I)cc1I has a melting point of 70 to 71 °C. For O=C(OCc1ccccc1)C(CC(=O)N1Cc2cscc2C1)Cc1ccccc1 (stereo unspecified), the melting point was 122 to 124 °C. In the case of Cc1nc2n(c(=O)c1CCN1CCN(c3noc4cc(F)ccc34)CC1)CCS2, the melting point is reported as 193 °C. For Cc1cccc(Cl)c1NC(=O)CN1CCN(CCCC(c2ccc(F)cc2)c2ccc(F)cc2)C(CO)C1 (stereo unspecified), the melting point was 150 °C. Work on CC(C)Cc1nc(-c2ccccc2)cnc1NN yielded a melting point of 109 to 110 °C. For Cc1ccc(S(=O)(=O)CCOc2ccccc2OCCS(=O)(=O)c2ccc(C)cc2)cc1, the melting point was 95 to 96 °C. For CCc1cccc2[nH]c3c(c12)CC(N(C)C)CC3 (stereo unspecified), the melting point was 157 to 161 °C. Work on COC1=C(OC)C(=O)C(CN2CCN(C(=S)SC)CC2)=C(C)C1=O yielded a melting point of 115 to 116 °C. In the case of O=c1ccn(-c2cc3[nH]c(=O)c(=O)[nH]c3cc2[N+](=O)[O-])cc1Cl, the melting point is reported as over 300 °C. In the case of N#Cc1ncn2c(C(F)(F)F)cc(-c3cccnc3)nc12, the melting point is reported as 222 °C. Work on CCOC(=O)C(Cc1cscn1)NC(C)=O (racemic) yielded a melting point of 58 to 62 °C. For CCOC(=O)c1nn(Cc2ccc(Cl)cc2Cl)c(-c2ccc(Cl)cc2)c1C, the melting point was 82 °C. With CC(=O)NCCNC(=O)CCCCC1CCSS1 (stereo unspecified) the melting point was 145 to 146 °C. With OCc1ccc2c(n1)C(CNCCCCCCOCCC#Cc1ccc(F)cc1)OC(c1ccccc1)O2 (stereo unspecified) the melting point was 83 to 85 °C. COc1ccc(N)c(-c2ccc3cc(OC)c(OC)cc3c2)c1 showed a melting point of 158 to 160 °C. With CCOP(=O)(OCC)c1ccc(CNC(=O)C2=Cc3cc(C4CCCCC4)ccc3CC2)cc1 the melting point was 169 to 170 °C. In the case of CCCCCNC(=O)n1cc(F)c(N)nc1=O, the melting point is reported as 289 to 292 °C. In the case of COC(=O)NCCc1ccc(C(=O)OC)c(S(=O)(=O)NC(=O)Nc2nc(OC)cc(OC)n2)c1, the melting point is reported as 165 to 169 °C. With Cn1cc(-c2ccccc2)c(=S)c(-c2cccc(C(F)(F)F)c2)c1 the melting point was 210 °C. With O=C(N[C@H]1CCN(CCc2ccc(F)cc2)C1)N(C1CCCCC1)C1CCCCC1 the melting point was 97 to 98 °C. CC(=S)NC[C@H]1CN(c2ccc3c(c2)CCCc2cnoc2-3)C(=O)O1 showed a melting point of 185 to 195 °C. With OCCCC1(c2ccccc2)OCCO1 the melting point was 39 to 42 °C. With CC(=O)N[C@@H](C)C(=O)NCCc1ccc(O)c(O)c1 the melting point was 200 to 202 °C. For CCOc1ccc([N+](=O)[O-])c(C=C2NC(=O)NC2=O)c1, the melting point was 243 to 245 °C. With COC(=O)C1=C(C)N(Cc2ccccc2[N+](=O)[O-])C(C)=C(C(=O)OC)C1c1cccc2nonc12 the melting point was 192 °C. Work on O=C(O)[C@H](Cc1ccccc1)NC(=O)[C@@H]1CCCN1S(=O)(=O)c1ccc([N+](=O)[O-])cc1 yielded a melting point of 70 to 80 °C. For CCCCCCCC(SC)S(=O)(=O)c1ccc(C)cc1 (stereo unspecified), the melting point was 65 to 66 °C. Cc1cc(C(=O)O)ccc1NC(=O)C(CS)Cc1ccccc1 (stereo unspecified) showed a melting point of 217 to 218 °C. Work on CCC(=O)N1CCC(NC(=O)NC2CCCCC2)CC1 yielded a melting point of 177 to 179 °C. Work on CC1(C)Oc2ccc([N+](=O)[O-])cc2C(n2ccccc2=O)=C1CNC(=O)C(F)(F)F yielded a melting point of 189 °C.

Reference: a melting point compilation (Tetko et al.; mined from patent text by program, amines drawn as free bases though some values may be those of a salt)
